Assay [1] has as its system DU145 (prostate cancer). Description: Cytotoxicity assay, DU145 tumor cells. It counts as cell-based. The settings on record: Homo sapiens, DU-145, 96 h treatment. As for the experimental part: (§1) The effect of the compounds of the invention on tumor cells was determined by the assay described by Latham et al., Oncogene 12:827-837 (1996). Tumor cells K562 (chronic myelogenous leukemia; leukemia cell line +ve for Bcr-Abl) or DU145 (prostate cancer) were plated in 12-well dishes at a cell density of 2.5×10^4 cells well. The plated cells were treated 24 hours later with a compound of the invention dissolved in DMSO at multiple concentrations ranging from 0.01 μM to 100 μM. The plates were examined 96 hours later under an inverted microscope, Olympus CK-2 using a 10× objective, and compound activity was noted by physical observation. When necessary, the total number of viable cells was determined by trypsinizing the wells and counting the number of viable cells, as determined by trypan blue exclusion, using a hemacytometer. Where “Lower” and “Upper” value are provided in Table 5, the IC50 was determined to be within that range. When only a “Lower” value is provided and no “Upper” value is listed, the IC50 was that value, or less than or greater than that value, as set forth in the Table.
(§2) The cytotoxicity of Compound 42, (Z)-6-((2,6-dichlorobenzyl)sulfonyl)-2-(4-hydroxy-3-nitrobenzylidene)-2H-benzo[b][1,4]thiazin-3(4H)-one, was determined according the assay method of Example 7 on the prostate (androgen dependent or independent), breast and pancreatic cancer cell lines listed in Table 6A, below, and the additional cell lines listed in Table 6B, below. The human mesenchymal stem cell line HMSC.hTERT and normal human fibroblast cell line HFL was included in the test.

Assay [2] has as its system K562 (chronic myelogenous leukemia; leukemia cell line +ve for Bcr-Abl). As to the kind of experiment: Cytotoxicity assay, K562 tumor cells. The conditions noted are these: Homo sapiens, K562, 96 h treatment. It counts as cell-based. As for the experimental part: as §1, §2
Setting [3] is: lower limit of the IC50 range, or the IC50 itself (or its bound) where no Upper value is listed, read-out: DU145 IC50 (μm) Lower (μm).
Setting [4] is: upper limit of the IC50 range, read-out: DU145 IC50 (μm) Upper (μm).
Where [5] appears, read: lower limit of the IC50 range, or the IC50 itself (or its bound) where no Upper value is listed, read-out: K562 IC50 (μm) Lower (μm).
Where [6] appears, read: upper limit of the IC50 range, read-out: K562 IC50 (μm) Upper (μm).

Like-named read-outs stand apart in the source and are kept apart here.

The term IC50 denotes the concentration needed to halve the response being measured. In the case of `O=C1Nc2cc(S(=O)(=O)Cc3c(Cl)cccc3Cl)ccc2S/C1=C\c1ccc(F)cc1F` [Compound 30, (Z)-6-((2,6-dichlorobenzyl)sulfonyl)-2-(2,4-difluorobenzylidene)-2H-benzo[b][1,4]thiazin-3(4H)-one], the IC50 is no less than 1000 nM in assay [1] (setting [3]), no more than 10000 nM in assay [1] (setting [4]), no less than 1000 nM in assay [2] (setting [5]) and no more than 10000 nM in assay [2] (setting [6]).

`O=C1Nc2cc(S(=O)(=O)Cc3c(Cl)cccc3Cl)ccc2S/C1=C\c1c(F)cc(F)cc1F` [Compound 31, (Z)-6-((2,6-dichlorobenzyl)sulfonyl)-2-(2,4,6-trifluorobenzylidene)-2H-benzo[b][1,4]thiazin-3(4H)-one]: the IC50 in assay [1] (setting [3]) is no less than 1000 nM; in assay [1] (setting [4]) it was no more than 10000 nM; in assay [2] (setting [5]), no less than 1000 nM; in assay [2] (setting [6]) it was no more than 10000 nM.

Take `COC(=O)c1ccc(/C=C2\Sc3ccc(S(=O)(=O)Cc4c(Cl)cccc4Cl)cc3NC2=O)cc1` [Compound 32, (Z)-methyl 4-((6-((2,6-dichlorobenzyl)sulfonyl)-3-oxo-3,4-dihydro-2H-benzo[b][1,4]thiazin-2-ylidene)methyl)benzoate]: the IC50 in assay [1] (setting [3]) was no less than 500 nM; in assay [1] (setting [4]) it was no more than 1000 nM; in assay [2] (setting [5]) it was no less than 1000 nM; in assay [2] (setting [6]), no more than 10000 nM.

For `O=C1Nc2cc(S(=O)(=O)Cc3c(Cl)cccc3Cl)ccc2S/C1=C\c1cccs1` [Compound 33, (Z)-6-((2,6-dichlorobenzyl)sulfonyl)-2-(thiophen-2-ylmethylene)-2H-benzo[b][1,4]thiazin-3(4H)-one], the IC50 in assay [1] (setting [3]) was no less than 500 nM; in assay [1] (setting [4]), no more than 1000 nM; in assay [2] (setting [5]), no less than 500 nM; in assay [2] (setting [6]), no more than 1000 nM.

On to `COC(=O)c1ccc(/C=C2\Sc3ccc(S(=O)(=O)Cc4c(Cl)cccc4Cl)cc3NC2=O)c([N+](=O)[O-])c1` [Compound 35, (Z)-methyl 4-((6-((2,6-dichlorobenzyl)sulfonyl)-3-oxo-3,4-dihydro-2H-benzo[b][1,4]thiazin-2-ylidene)methyl)-3-nitrobenzoate], for which the concentration for half-maximal inhibition (IC50) in assay [1] (setting [3]) was greater than 10000 nM; in assay [2] (setting [5]), no less than 1000 nM; in assay [2] (setting [6]), no more than 10000 nM.

As for `CSc1nccc(/C=C2\Sc3ccc(S(=O)(=O)Cc4c(Cl)cccc4Cl)cc3NC2=O)n1` [Compound 36, (Z)-6-((2,6-dichlorobenzyl)sulfonyl)-2-((2-(methylthio)pyrimidin-4-yl)methylene)-2H-benzo[b][1,4]thiazin-3(4H)-one], the IC50 in assay [1] (setting [3]) was 2000 nM; in assay [2] (setting [5]) it was greater than 2500 nM.

As for `O=C1Nc2cc(S(=O)(=O)Cc3c(Cl)cccc3Cl)ccc2S/C1=C\c1ccnc(N2CCOCC2)n1` [Compound 37, (Z)-6-((2,6-dichlorobenzyl)sulfonyl)-2-((2-morpholinopyrimidin-4-yl)methylene)-2H-benzo[b][1,4]thiazin-3(4H)-one], the IC50 in assay [1] (setting [3]) is no less than 1000 nM; in assay [1] (setting [4]) it was no more than 10000 nM; in assay [2] (setting [5]), no less than 1000 nM; in assay [2] (setting [6]) it was no more than 10000 nM.

Regarding `Cc1ccc(S(=O)(=O)Oc2ccc(/C=C3\Sc4ccc(S(=O)(=O)Cc5c(Cl)cccc5Cl)cc4NC3=O)cc2[N+](=O)[O-])cc1` [Compound 38, (Z)-4-((6-((2,6-dichlorobenzyl)sulfonyl)-3-oxo-3,4-dihydro-2H-benzo[b][1,4]thiazin-2-ylidene)methyl)-2-nitrophenyl 4-methylbenzenesulfonate], the IC50 in assay [1] (setting [3]) amounted to 90 nM; in assay [2] (setting [5]), 100 nM.

For `O=C1Nc2cc(S(=O)(=O)Cc3c(Cl)cccc3Cl)ccc2S/C1=C\c1ccc(-c2nn[nH]n2)cc1` [Compound 39, (Z)-2-(4-(2H-tetrazol-5-yl)benzylidene)-6-((2,6-dichlorobenzyl)sulfonyl)-2H-benzo[b][1,4]thiazin-3(4H)-one], the IC50 was no less than 1000 nM in assay [1] (setting [3]), no more than 10000 nM in assay [1] (setting [4]), no less than 1000 nM in assay [2] (setting [5]) and no more than 10000 nM in assay [2] (setting [6]).

Turning to `COc1ccc2c(c1)S/C(=C\c1ccc(OC(C)=O)c([N+](=O)[O-])c1)C(=O)N2C(C)=O` [Compound 40, (Z)-4-((4-acetyl-7-methoxy-3-oxo-3,4-dihydro-2H-benzo[b][1,4]thiazin-2-ylidene)methyl)-2-nitrophenyl acetate], the IC50 worked out at 2000 nM in assay [1] (setting [3]) and 1500 nM in assay [2] (setting [5]).

Regarding `O=C1Nc2cc(S(=O)(=O)Cc3c(Cl)cccc3Cl)ccc2S/C1=C\c1ccc(OCc2ccccc2)c([N+](=O)[O-])c1` [Compound 41, (Z)-2-(4-(benzyloxy)-3-nitrobenzylidene)-6-((2,6-dichlorobenzyl)sulfonyl)-2H-benzo[b][1,4]thiazin-3(4H)-one], the IC50 was 1500 nM in assay [1] (setting [3]) and 750 nM in assay [2] (setting [5]).

Regarding `O=C1Nc2ccc(F)cc2S/C1=C\c1ccc(OCc2ccccc2)c([N+](=O)[O-])c1` [Compound 43, (Z)-2-(4-(benzyloxy)-3-nitrobenzylidene)-7-fluoro-2H-benzo[b][1,4]thiazin-3(4H)-one], the half-inhibitory concentration (IC50) in assay [1] (setting [3]) and in assay [2] (setting [5]) was greater than 10000 nM each time.

As for `O=C1Nc2ccc(F)cc2S/C1=C\c1ccc(O)c([N+](=O)[O-])c1` [Compound 44, (Z)-7-fluoro-2-(4-hydroxy-3-nitrobenzylidene)-2H-benzo[b][1,4]thiazin-3(4H)-one], the IC50 in assay [1] (setting [3]) turned out to be 750 nM; in assay [2] (setting [5]), 250 nM.

Source of the values: patent publication US9242945B2, “Substituted 2-benzylidene-2H-benzo[b][1,4]thiazin-3(4H)-ones, derivatives thereof, and therapeutic uses thereof” (TEMPLE UNIVERSITY—OF THE COMMONWEALTH SYSTEM OF HIGHER …, priority 2011, dated 2016).
